The results in this text go back to PubChem BioAssay (NCI).

SMILES strings stand for the structures. Several values for one entry are separate records, joined by “and”; a condition that tells them apart may be missing. Identical values can stand only once.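 A five-concentration, 48-hour dose response in 96-well plates underlies each endpoint, interpolated linearly between surrounding concentrations. The concentration for 50% growth inhibition is given as GI50. TGI denotes the concentration required for complete inhibition of growth.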

Test systems include HT29 colon; SF-268 CNS; HCT-15 colon; BT-549 breast; SN12C renal; HCT-116 colon; A549 NSCLC; EKVX NSCLC; SK-MEL-2 melanoma; OVCAR-8 ovarian.
What all share (assay): NCI-60 cell line screen, 48 h

For the compound `Nc1nc2c(C(=O)NCc3cccs3)nnn2c2cccc(Cl)c12`, the TGI in the assay on HT29 colon, in the assay with SF-268 CNS, in the assay on HCT-15 colon, in the assay on BT-549 breast, in the assay with SN12C renal and with HCT-116 colon was more than 100 µM each time. Further, the TGI in the assay on A549 NSCLC, in the assay with EKVX NSCLC, with SK-MEL-2 melanoma and in the assay on OVCAR-8 ovarian was more than 100 µM in each case.

As to `N#CC1=C(N)Oc2c(ccc3ccccc23)C1c1cc(=O)oc2ccc(Cl)cc12` (centres undefined), the GI50 in the assay with HT29 colon is 1.91 µM; with SF-268 CNS, 2.02 µM; with HCT-15 colon it was 0.471 µM; in the assay on BT-549 breast it was 1.3 µM; in the assay with SN12C renal it was 2.59 µM; in the assay on HCT-116 colon it was 0.406 µM. Besides, the GI50 was 1.38 µM in the assay with A549 NSCLC, 3.79 µM with EKVX NSCLC, 0.972 µM in the assay with SK-MEL-2 melanoma and 1.87 µM in the assay with OVCAR-8 ovarian. Besides, the TGI with HT29 colon was 6.89 µM; with SF-268 CNS it was more than 100 µM; with HCT-15 colon it was 15.8 µM; with BT-549 breast, 61.8 µM; with SN12C renal, 45.4 µM; in the assay on HCT-116 colon, 23.8 µM. Moreover, the TGI with A549 NSCLC was more than 100 µM; in the assay with EKVX NSCLC, more than 100 µM; with SK-MEL-2 melanoma it was 44.7 µM; with OVCAR-8 ovarian, 24 µM.

For the compound `C#C[C@@]1(O)[C@@H](CO)O[C@@H](n2cc(I)c3c(N)ncnc32)[C@@H]1O`, the GI50 in the assay with HT29 colon is 0.0237 µM; in the assay with SF-268 CNS it was 1.1 µM; in the assay with HCT-15 colon, 0.137 µM; in the assay on BT-549 breast, 0.259 µM; with SN12C renal, 0.0976 µM; in the assay on HCT-116 colon, 0.0434 µM. The GI50 with A549 NSCLC is 0.298 µM; with EKVX NSCLC, 0.408 µM; in the assay with SK-MEL-2 melanoma, 0.239 µM; in the assay with OVCAR-8 ovarian, 0.0456 µM. Further, the TGI in the assay with HT29 colon was 4.75 µM; in the assay with SF-268 CNS, 49.9 µM; in the assay on HCT-15 colon it was more than 100 µM; in the assay with BT-549 breast, 4.01 µM; in the assay with SN12C renal, more than 100 µM; in the assay with HCT-116 colon it was more than 100 µM. Besides, the TGI in the assay on A549 NSCLC is more than 100 µM; in the assay on EKVX NSCLC, 5.37 µM; in the assay on SK-MEL-2 melanoma it was 1.76 µM.

For the compound `ClCc1ccccc1Cn1cnc2ncnc(Cl)c21`, the GI50 was 3.93 µM with HT29 colon; 4.76 µM in the assay on SF-268 CNS; 1.36 µM with HCT-15 colon; 2.45 µM in the assay with BT-549 breast; 2.96 µM with SN12C renal; 1.5 µM in the assay with HCT-116 colon. In addition, the GI50 with A549 NSCLC was 4.44 µM; in the assay on EKVX NSCLC it was 5.33 µM; in the assay with SK-MEL-2 melanoma it was 4.2 µM; in the assay with OVCAR-8 ovarian it was 2.74 µM. Further, the TGI was more than 100 µM in the assay on HT29 colon; 24.4 µM with SF-268 CNS; 2.91 µM in the assay with HCT-15 colon; 6.09 µM with BT-549 breast; 8.5 µM in the assay with SN12C renal; 4.11 µM in the assay on HCT-116 colon. Further, the TGI turned out to be 23.9 µM with A549 NSCLC, 17.6 µM in the assay on EKVX NSCLC, 19.7 µM with SK-MEL-2 melanoma and 8.74 µM with OVCAR-8 ovarian.

In the case of `CC(=O)OC12C=C(C)C(C(C)C1)C1C(=O)N(CCN3CCCCC3)C(=O)C12` (centres undefined), the GI50 in the assay with HT29 colon, with SF-268 CNS, in the assay with HCT-15 colon, in the assay on BT-549 breast, in the assay with SN12C renal and in the assay on HCT-116 colon was more than 50 µM throughout. For the same compound, the GI50 in the assay with A549 NSCLC, in the assay with EKVX NSCLC, with SK-MEL-2 melanoma and in the assay with OVCAR-8 ovarian was more than 50 µM in each case. Besides, the TGI in the assay with HT29 colon, in the assay on SF-268 CNS, with HCT-15 colon, in the assay with BT-549 breast, with SN12C renal and in the assay with HCT-116 colon was more than 50 µM throughout. For the same compound, the TGI in the assay on A549 NSCLC, with EKVX NSCLC, in the assay on SK-MEL-2 melanoma and in the assay with OVCAR-8 ovarian was more than 50 µM throughout.

Turning to `COc1cc(C2C3=C(COC3=O)N(CCO)c3cc4c(cc32)OCCO4)cc(OC)c1OC` (centres undefined), the GI50 is 0.166 µM with HT29 colon; 0.374 µM in the assay on SF-268 CNS; 1.37 µM in the assay with HCT-15 colon; 0.32 µM in the assay with BT-549 breast; 0.178 µM with HCT-116 colon; 0.487 µM with A549 NSCLC. For the same compound, the GI50 in the assay with EKVX NSCLC was 0.413 µM; with SK-MEL-2 melanoma, 0.173 µM; in the assay on OVCAR-8 ovarian it was 0.24 µM. Besides, the TGI is more than 50 µM with SF-268 CNS; more than 50 µM in the assay on HCT-15 colon; more than 11.8 µM in the assay on BT-549 breast; more than 50 µM in the assay with SN12C renal; more than 50 µM with A549 NSCLC; more than 50 µM in the assay with EKVX NSCLC. The TGI with SK-MEL-2 melanoma was 4.55 µM; in the assay on OVCAR-8 ovarian, more than 50 µM.

On to `CN(C)CC1CC/C(=C\c2ccc3c(c2)OCO3)C1=O` (centres undefined), for which the TGI was determined as 59 µM in the assay with HT29 colon; 26.7 µM in the assay with SF-268 CNS; 15 µM in the assay on HCT-15 colon; 24.9 µM in the assay with BT-549 breast; 30.3 µM in the assay with SN12C renal; 18.6 µM in the assay with HCT-116 colon. In addition, the TGI is more than 75.3 µM in the assay on A549 NSCLC, 39.4 µM in the assay on EKVX NSCLC, 22.8 µM in the assay with SK-MEL-2 melanoma and 19.2 µM with OVCAR-8 ovarian.

For `CCN(CC)CCCC(C)Nc1cc(-c2cccc(OC(F)(F)F)c2)nc2ccc(N3CCCC3)cc12` (centres undefined), the GI50 was 0.0394 µM with HT29 colon; 0.196 µM with SF-268 CNS; 0.0415 µM in the assay with HCT-15 colon; 0.201 µM in the assay with BT-549 breast; 0.124 µM in the assay on SN12C renal; 0.0371 µM in the assay on HCT-116 colon. Further, the GI50 with A549 NSCLC was 0.0677 µM; in the assay on EKVX NSCLC, 0.069 µM; with SK-MEL-2 melanoma it was 0.598 µM; with OVCAR-8 ovarian, 0.0626 µM. The TGI is 11.2 µM in the assay on HT29 colon; 19.8 µM in the assay with SF-268 CNS; 12.4 µM in the assay with HCT-15 colon; 3.39 µM with BT-549 breast; 16.1 µM in the assay on SN12C renal; 13.7 µM with HCT-116 colon. Moreover, the TGI with A549 NSCLC is more than 100 µM; in the assay with EKVX NSCLC it was more than 100 µM; in the assay on SK-MEL-2 melanoma, 27 µM; in the assay with OVCAR-8 ovarian it was 34.3 µM.

Regarding `O=C(NCC(F)(F)F)Nc1cccc(-c2cnc3cc(-c4ccc(F)cc4)ccn23)c1`, the GI50 in the assay on HT29 colon was 0.314 µM; in the assay with SF-268 CNS, 2.8 µM; in the assay with HCT-15 colon, 0.614 µM; in the assay on BT-549 breast, 1.31 µM; in the assay with SN12C renal, 1.54 µM; with HCT-116 colon it was 0.539 µM. Moreover, the GI50 is 0.947 µM in the assay with A549 NSCLC, 5.17 µM in the assay with EKVX NSCLC, 0.477 µM in the assay on SK-MEL-2 melanoma and 2.83 µM in the assay with OVCAR-8 ovarian. Moreover, the TGI is 1.23 µM with HT29 colon; more than 100 µM in the assay with SF-268 CNS; more than 74 µM with HCT-15 colon; more than 61 µM in the assay on BT-549 breast; more than 67.4 µM with SN12C renal; 14.7 µM with HCT-116 colon. In addition, the TGI is more than 100 µM in the assay with A549 NSCLC, more than 100 µM with EKVX NSCLC, 12 µM in the assay on SK-MEL-2 melanoma and 33.6 µM in the assay on OVCAR-8 ovarian.

Take `O=C1CSC(c2ccccc2Cl)N1c1nnc(Cn2cnnc2)o1` (centres undefined): the GI50 with HT29 colon was 3.35 µM; in the assay on SF-268 CNS, 13.9 µM; with HCT-15 colon, 4.47 µM; in the assay with BT-549 breast, 6.31 µM; with SN12C renal, 23.1 µM; with HCT-116 colon, 4.09 µM. Further, the GI50 with A549 NSCLC is 18 µM; in the assay on EKVX NSCLC, 22.3 µM; in the assay with SK-MEL-2 melanoma, 22.6 µM; in the assay on OVCAR-8 ovarian, 30.2 µM. Moreover, the TGI in the assay on HT29 colon came to 13.9 µM; with SF-268 CNS, 93.7 µM; in the assay with HCT-15 colon, 18.2 µM; in the assay with BT-549 breast, 32.5 µM; in the assay with SN12C renal, 76.3 µM; in the assay with HCT-116 colon, 18.4 µM. Further, the TGI in the assay on A549 NSCLC is more than 100 µM; in the assay on EKVX NSCLC, more than 100 µM; in the assay with SK-MEL-2 melanoma, 94.8 µM; in the assay on OVCAR-8 ovarian, more than 100 µM.

As to `CCCCCC(O)C(O)CCC[C@H](O)[C@H]1CC[C@H]([C@H]2CC[C@H]([C@H](O)CCCCCCCCCCCCC3=C[C@H](C)OC3=O)O2)O1` (some centres undefined), the TGI was 8.31 µM in the assay on HT29 colon; 40.8 µM in the assay on SF-268 CNS; 40.6 µM in the assay with HCT-15 colon; 2.79 µM and 25.5 µM with BT-549 breast; 66.6 µM in the assay on SN12C renal; 38.7 µM in the assay on HCT-116 colon. The TGI in the assay on A549 NSCLC is more than 100 µM; in the assay on EKVX NSCLC, 26.4 µM; in the assay on SK-MEL-2 melanoma it was 5.16 µM and 37.4 µM; with OVCAR-8 ovarian it was more than 100 µM. Also, the GI50 was 12.4 µM in the assay on SF-268 CNS; 5.48 µM with HCT-15 colon; 13.6 µM in the assay on SN12C renal; 0.0933 µM in the assay on HCT-116 colon; 3.48 µM with A549 NSCLC; 6.94 µM with EKVX NSCLC. Moreover, the GI50 was 15.8 µM in the assay on SK-MEL-2 melanoma and 7.24 µM with OVCAR-8 ovarian.

In the case of `C#Cc1cccc(Nc2nc(Cl)nc3cc(NC(=O)CCl)ccc23)c1`, the GI50 in the assay with HT29 colon is 0.766 µM; in the assay on SF-268 CNS it was 0.557 µM; with HCT-15 colon, 0.592 µM; in the assay with BT-549 breast, 0.531 µM; in the assay with SN12C renal, 0.637 µM; with HCT-116 colon, 0.449 µM. In addition, the GI50 is 3.66 µM with A549 NSCLC, 2.12 µM with EKVX NSCLC, 1.16 µM with SK-MEL-2 melanoma and 0.754 µM in the assay on OVCAR-8 ovarian. The TGI in the assay with HT29 colon is 4.43 µM; in the assay with SF-268 CNS, 1.48 µM; in the assay with HCT-15 colon it was 2.03 µM; in the assay with BT-549 breast, 2.57 µM; in the assay on SN12C renal, 1.8 µM; in the assay with HCT-116 colon it was 0.975 µM. The TGI in the assay with A549 NSCLC was determined as 8.51 µM; in the assay on EKVX NSCLC, 6.27 µM; with SK-MEL-2 melanoma it was 3.6 µM; in the assay on OVCAR-8 ovarian, 2.65 µM.
